From PubChem BioAssay AID248 (DTP/NCI, 2004) come the findings set out here.

“And” between values parts separate entries of the source, which are not always exact repeats. Equal values may be shown once. Toxic doses and inconclusive results are not listed.

The test system of the test is L1210 leukemia ip in BDF1 mice, survival T/C. Briefly: NCI In Vivo Anticancer Drug Screen. Data for tumor model L1210 Leukemia (intraperitoneal) in B6D2F1 (BDF1) mice. The note with it: endpoint: mean survival time, higher = longer survival. Summed up: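 Antitumor effect is assessed in tumor-bearing animals. Survival in the compound arm is compared with a vehicle-dosed control arm and expressed as their quotient.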

The mark [1] stands for this setting: dose: 100.0 mg/kg/injection, schedule: Q01DX009 (ip), vehicle: saline.
Setting [2] is: dose: 200.0 mg/kg/injection, schedule: Q01DX009 (ip), vehicle: saline.
Where [3] appears, read: dose: 400.0 mg/kg/injection, schedule: Q01DX009 (ip), vehicle: saline.
Setting [4] is: dose: 100.0 mg/kg/injection, schedule: Q04DX002 (ip), vehicle: Klucel (hydroxypropylcellulose) (HPC).
Setting [5] is: dose: 100.0 mg/kg/injection, schedule: Q01DX009 (ip), vehicle: Klucel (hydroxypropylcellulose) (HPC).
Setting [6] is: dose: 100.0 mg/kg/injection, schedule: Q04DX003 (ip), vehicle: Klucel (hydroxypropylcellulose) (HPC).
[7] abbreviates: dose: 200.0 mg/kg/injection, schedule: Q01DX009 (ip), vehicle: Klucel (hydroxypropylcellulose) (HPC).
[8] abbreviates: dose: 200.0 mg/kg/injection, schedule: Q04DX003 (ip), vehicle: Klucel (hydroxypropylcellulose) (HPC).
The mark [9] stands for this setting: dose: 400.0 mg/kg/injection, schedule: Q01DX009 (ip), vehicle: Klucel (hydroxypropylcellulose) (HPC).
The mark [10] stands for this setting: dose: 400.0 mg/kg/injection, schedule: Q04DX003 (ip), vehicle: Klucel (hydroxypropylcellulose) (HPC).
Setting [11] is: dose: 100.0 mg/kg/injection, schedule: Q01DX001 (ip), vehicle: saline with Tween-80.
[12] abbreviates: dose: 200.0 mg/kg/injection, schedule: Q01DX001 (ip), vehicle: saline with Tween-80.
Setting [13] is: dose: 400.0 mg/kg/injection, schedule: Q01DX001 (ip), vehicle: saline with Tween-80.
The mark [14] stands for this setting: dose: 100.0 mg/kg/injection, schedule: Q04DX003 (ip), vehicle: saline.
The mark [15] stands for this setting: dose: 200.0 mg/kg/injection, schedule: Q04DX003 (ip), vehicle: saline.
Where [16] appears, read: dose: 100.0 mg/kg/injection, schedule: Q01DX001 (ip), vehicle: saline.

As for `O=P(N1CCOCC1)(N1CC1)N1CC1`, the T/C is 103 % of control (dose: 2.3 mg/kg/injection, schedule: Q01DX015 (ip), vehicle: saline); 108 % of control (dose: 3.5 mg/kg/injection, schedule: Q01DX015 (ip), vehicle: saline); 114 % of control (dose: 5.3 mg/kg/injection, schedule: Q01DX015 (ip), vehicle: saline); 105 % of control (dose: 6.2 mg/kg/injection, schedule: Q01DX001 (ip), vehicle: saline); 107 % of control (dose: 9.3 mg/kg/injection, schedule: Q01DX001 (ip), vehicle: saline); 196 % of control (dose: 12.5 mg/kg/injection, schedule: Q01DX009 (ip), vehicle: saline). Also, the T/C was 112 % of control (dose: 14.0 mg/kg/injection, schedule: Q01DX001 (ip), vehicle: saline); 210 % of control (dose: 14.0 mg/kg/injection, schedule: Q01DX015 (ip), vehicle: saline); 246 % of control (dose: 23.0 mg/kg/injection, schedule: Q01DX015 (ip), vehicle: saline); 116 % of control (dose: 25.0 mg/kg/injection, schedule: Q01DX009 (ip), vehicle: saline); 157 % of control (dose: 33.0 mg/kg/injection, schedule: Q01DX001 (ip), vehicle: saline); 104 % of control (dose: 38.0 mg/kg/injection, schedule: Q01DX015 (ip), vehicle: saline).
Turning to `O=C1OCC(O)C(O)C(O)C(O)C1O` (configuration not stated), the T/C is 102 % of control under setting [1], 100 % of control under setting [2] and 102 % of control under setting [3].
With `Cc1cc2cc3cccnn3c2nn1`, the T/C is 106 % of control (dose: 25.0 mg/kg/injection, schedule: Q04DX002 (ip), vehicle: saline); 98 % of control (dose: 50.0 mg/kg/injection, schedule: Q04DX002 (ip), vehicle: saline); 118 % of control under setting [4]; 106 % of control (dose: 100.0 mg/kg/injection, schedule: Q04DX002 (ip), vehicle: saline).
Regarding `Cc1cc(Cl)ccc1NC(=O)c1cccc(C(=O)Nc2ccc(Cl)cc2C)c1`, the T/C runs as follows: under setting [5], 97 % of control; under setting [6], 98 % of control; under setting [7], 92 % of control; under setting [8], 90 % of control; under setting [9], 87 % of control; under setting [10], 93 % of control.
As for `CC1(c2ccccc2)OCCCO1`, the T/C under setting [11] was 100 % of control, the T/C under setting [12] is 98 % of control and the T/C under setting [13] is 107 % of control.
On to `CC(C)NC(=O)Oc1ccccc1`, for which the T/C under setting [4] was 93 % of control; the T/C (dose: 200.0 mg/kg/injection, schedule: Q04DX002 (ip), vehicle: Klucel (hydroxypropylcellulose) (HPC)) was 110 % of control; the T/C (dose: 400.0 mg/kg/injection, schedule: Q04DX002 (ip), vehicle: Klucel (hydroxypropylcellulose) (HPC)) is 96 % of control.
Turning to `Cc1cc(N(CCOS(C)(=O)=O)CCOS(C)(=O)=O)ccc1C=Nc1ccc2ccccc2c1`, the T/C reads like this: (dose: 13.3 mg/kg/injection, schedule: Q04DX003 (ip), vehicle: Klucel (hydroxypropylcellulose) (HPC)) 116 % of control; (dose: 20.0 mg/kg/injection, schedule: Q04DX003 (ip), vehicle: Klucel (hydroxypropylcellulose) (HPC)) 108 % of control and 117 % of control; (dose: 80.0 mg/kg/injection, schedule: Q04DX003 (ip), vehicle: Klucel (hydroxypropylcellulose) (HPC)) 112 % of control.
As for `O=c1[n-]cc(F)c(=O)[nH]1.O=c1[n-]cc(F)c(=O)[nH]1.[NH2-].[NH2-].[Pt+4]`, the T/C runs as follows: (dose: 6.25 mg/kg/injection, schedule: Q03HX024 (ip), vehicle: saline with Tween-80) 97 % of control; (dose: 12.5 mg/kg/injection, schedule: Q03HX024 (ip), vehicle: saline with Tween-80) 101 % of control; (dose: 25.0 mg/kg/injection, schedule: Q03HX024 (ip), vehicle: saline with Tween-80) 99 % of control; (dose: 50.0 mg/kg/injection, schedule: Q03HX024 (ip), vehicle: saline with Tween-80) 118 % of control; under setting [1], 115 % of control and 105 % of control; under setting [14], 108 % of control and 92 % of control and 97 % of control. Further, the T/C was 124 % of control and 114 % of control under setting [2]; 93 % of control and 113 % of control and 97 % of control under setting [15]; 109 % of control under setting [3]; 120 % of control and 124 % of control and 101 % of control (dose: 400.0 mg/kg/injection, schedule: Q04DX003 (ip), vehicle: saline).
Regarding `Cc1ccc(S(=O)(=O)NCC(=O)NCCC#N)cc1`, the T/C (dose: 100.0 mg/kg/injection, schedule: Q01DX001 (ip), vehicle: Klucel (hydroxypropylcellulose) (HPC)) is 103 % of control; the T/C (dose: 200.0 mg/kg/injection, schedule: Q01DX001 (ip), vehicle: Klucel (hydroxypropylcellulose) (HPC)) was 97 % of control; the T/C (dose: 400.0 mg/kg/injection, schedule: Q01DX001 (ip), vehicle: Klucel (hydroxypropylcellulose) (HPC)) was 92 % of control.
`O=C(Cc1ccc(-c2ccccc2)cc1)c1ccccc1`: the T/C runs as follows: under setting [11], 94 % of control; under setting [12], 93 % of control; under setting [13], 91 % of control.
For the compound `CC(C)(C)c1cc(CN2CCCC(O)C2)c(O)c(-c2ccccc2)c1` (configuration not stated), the T/C is 98 % of control under setting [14] and 98 % of control under setting [15].
In the case of `CC(=O)CN1C(=O)c2ccccc2C1=O`, the T/C was 102 % of control under setting [5]; 111 % of control under setting [6]; 108 % of control under setting [7]; 104 % of control under setting [8]; 105 % of control under setting [9]; 98 % of control under setting [10].
In the case of `c1csc([Si](c2cccs2)(c2cccs2)c2cccs2)c1`, the T/C is 103 % of control (dose: 100.0 mg/kg/injection, schedule: Q04DX002 (ip), vehicle: saline with Tween-80) and 89 % of control (dose: 200.0 mg/kg/injection, schedule: Q04DX002 (ip), vehicle: saline with Tween-80).
As to `COc1ccc(S(=O)(=O)Nc2cccc(C(F)(F)F)c2)cc1`, the T/C is, setting by setting: under setting [5], 102 % of control; under setting [7], 102 % of control; under setting [9], 100 % of control.
For the compound `CCCN(CCC)C(=O)OCC`, the T/C is 97 % of control (dose: 100.0 mg/kg/injection, schedule: Q01DX009 (ip), vehicle: saline with Tween-80) and 100 % of control (dose: 200.0 mg/kg/injection, schedule: Q01DX009 (ip), vehicle: saline with Tween-80).
Regarding `OC(CN1CCCCC1)c1nc2ccccc2c2ccccc12` (configuration not stated), the T/C was 102 % of control (dose: 50.0 mg/kg/injection, schedule: Q01DX001 (ip), vehicle: saline) and 94 % of control under setting [16].
Regarding `COC(C)(C)C(C)O` (configuration not stated), the T/C by setting is: (dose: 50.0 mg/kg/injection, schedule: Q01DX009 (ip), vehicle: saline) 100 % of control; under setting [1], 96 % of control; under setting [2], 100 % of control.
With `COc1ccc(C(=O)C=C(C(F)(F)F)C(F)(F)F)cc1`, the T/C was 93 % of control (dose: 25.0 mg/kg/injection, schedule: Q04DX003 (ip), vehicle: saline with Tween-80); 102 % of control (dose: 50.0 mg/kg/injection, schedule: Q04DX003 (ip), vehicle: saline with Tween-80); 100 % of control and 102 % of control (dose: 100.0 mg/kg/injection, schedule: Q04DX003 (ip), vehicle: saline with Tween-80).
On to `N#Cc1cnc(SCC(=O)O)nc1N`, for which the T/C under setting [16] is 96 % of control; the T/C (dose: 200.0 mg/kg/injection, schedule: Q01DX001 (ip), vehicle: saline) is 102 % of control; the T/C (dose: 400.0 mg/kg/injection, schedule: Q01DX001 (ip), vehicle: saline) was 102 % of control.
On to `CN(C)/C=N/Nc1ccc([N+](=O)[O-])cc1[N+](=O)[O-]`, for which the T/C was 94 % of control under setting [5]; 102 % of control under setting [6]; 94 % of control under setting [7]; 97 % of control under setting [8]; 96 % of control under setting [9]; 97 % of control under setting [10].
